row,SMILES,melting point [°C]
1,NNc1ncccc1-c1ccccn1,64 to 65
2,CN(C)C1CC=C(c2ccccc2Cc2ccccc2)CC1 (centres undefined),44 to 45
3,N#CCCC(CCC(=O)O)(c1ccccc1)c1ccccc1,119 to 120
4,Cc1cccc(NC(=O)NCC(=O)N(CC(=O)N2CCCCCC2)c2ccccc2)c1,245
5,O=C1COc2ccc(CCCCCCc3ccc4c(c3)NC(=O)CO4)cc2N1,219 to 225
6,CC1(C)Oc2ccc(C(=O)CO)cc2[C@H](NC(=O)c2ccc(F)cc2)[C@H]1O,216
7,CCC(C)C(NC(=O)C(C)N(C(=O)OC(C)(C)C)C1CCCCC1)C(=O)NC(CC1CCCCC1)C(O)C(O)CC(C)C (centres undefined),181 to 182
8,COc1cc2c(c3c1OC(C)(C)C3)C(C)=NC(C)(C)C2,112 to 113
9,CSc1nc2ccc3c(c2o1)C(CCNC(C)=O)CC3 (centres undefined),115 to 117
10,Cc1cnc(C)c(N(CCN(C)C)C(=O)N(C)C)n1,96 to 98
11,Cc1cc(O)c(C2C=CN(C)CC2)c(O)c1 (centres undefined),241 to 243
12,CNC(=NC#N)NCc1cccc(-c2csc(N=C(N)N)n2)n1,245 to 246
13,CCCCCCCCC#CCC#CCC#CCO,48
14,O=C1CCCC2=C1C(c1cc(Br)cs1)C1=C(CCS1)N2 (centres undefined),> 250
15,COc1ccc(CN(CC(=O)NO)S(=O)(=O)c2ccc(OC)cc2)cc1,134 to 136
16,Nc1ccc(C2Sc3ccccc3C=C2c2ccc3c(c2)NC(=O)CO3)cc1 (centres undefined),186 to 189
17,CCCOc1cccc(Oc2ccc3c(c2)C=C(C(=O)Nc2ccc(CN(C)C4CCOCC4)cc2)CCS3(=O)=O)c1,143 to 144
18,COc1cc2c(c(OC)c1)C1CCC3(C)C(O)CCC3C1CC2 (centres undefined),53 to 55
19,BrCc1ccccc1-c1ccccc1CBr,85 to 88
20,CSCCSc1c(O)cc(C)oc1=O,81 to 83
21,CC(c1ccc(O)cc1)c1ccc(O)cc1,123 to 125

row,SMILES,melting point [°C]
1,Cc1c(O)c(Cl)cc(Cl)c1C(=O)O,135
2,CCC(=Cc1ccccc1)C1=CC=C2C(C1)C(C)(C)CCC2(C)C (centres undefined),65
3,C#Cc1cc([C@@H](C)NC(=O)Nc2ccc(C(C)(C)C)cc2)ccc1NS(C)(=O)=O,88.4 to 89.4
4,O=C(O)c1ccc(NCCc2ccccc2)cc1,123 to 125
5,CC(C)c1ccc(C(C)C)n1NC1=NCCN1,230 to 232
6,O=[N+]([O-])c1cc(Cl)c(Oc2ccccc2)cc1Oc1ccccc1,95
7,CN1CC(C(=O)CN2CCOCC2)CC2c3cccc4[nH]cc(c34)CC21 (centres undefined),178 to 180
8,COC(=O)c1cc2ccc(O)cc2o1,176 to 177
9,CCOC(=O)CC(=O)Nc1ccc(NC(=O)CC(=O)OCC)c([N+](=O)[O-])c1,96 to 97
10,NC(=S)NN=C(CCCNC(=O)C1CCCCC1)c1ccccc1,158 to 159
11,O=C1CCC2CC(c3ccccc3)c3cccc1c32 (centres undefined),99
12,COc1cccc(CC[C@H]2CN(Cc3ccccc3)CCN2Cc2ccccc2)c1,73 to 75
13,CN1CCc2c(sc3ncn(CCO)c(=O)c23)C1,163 to 165
14,CC(C)NCC(O)COc1ccc(NC(=O)N(C)C)cc1 (centres undefined),138 to 139
15,O=C1c2ccccc2C(OCC2CO2)N1c1ccccc1 (centres undefined),76
16,Cc1cccc2c1CN(S(C)(=O)=O)CCS2,128 to 130
17,NC(=O)c1cccc(-c2ccnc(C(=O)N(O)Cc3ccccc3)c2)c1,158 to 162
18,N#Cc1c(Cl)[nH]c2ccccc12,177 to 180
19,COc1ccc2c(c1)CCC1C2CCC2(C)C(NCCc3cccn3C)CCC12 (centres undefined),141 to 143
20,COC(=O)c1cccc(Cn2nc(C(N)=O)c3ccccc32)c1,166 to 168
21,COc1ccc(C(O)CN)cc1OCc1ccccc1 (centres undefined),101 to 102

row,SMILES,melting point [°C]
1,CSc1c2c(nn1C)N(c1c(C)cc(C)cc1C)CCC2,90.3 to 91.7
2,CC(C)(NC(=O)c1cc2c(n(CC3CCCCC3)c1=O)CCCCCC2)C(=O)N(N)S(C)(=O)=O,177 to 178
3,Cc1cc(N)cc(C)c1-c1ccc(-c2c(C)cc(N)cc2C)o1,144 to 146
4,CCOC(=O)C1=CC(=NO)[C@@H](NC(C)=O)[C@@H]2OC(C)(C)O[C@H]12,106 to 116
5,Cc1nc(-c2ccc3c(c2)CCCC3)c(CO)o1,132 to 133
6,CN(O)C(=O)NC1CCCc2sccc21 (centres undefined),98 to 102
7,COc1ccc2c(c1)Cc1ccc(C(=O)O)cc1O2,259 to 261
8,O=C(NCCN1CCCCC1)c1ccc(=O)n(Cc2ccc(-c3ccccc3)cc2)c1,137 to 142
9,CC(C)=NN=c1scc(C)n1C,139 to 140
10,O=C(Cl)Cc1ccccc1Br,79
11,CCOC(=O)C(=NOCCBr)c1csc(N)n1,111 to 114
12,Brc1ncccc1-c1cccnc1,97 to 98
13,Cc1cc(C)c(C)c(COc2ccccc2-c2ccoc2C(=O)NNC(=O)c2ccc(O)c(C#N)c2)c1C,215 to 217
14,CC(=O)N1CCN(c2ccc(N)cc2)CC1,142 to 144
15,COc1cccc2c1OC(C(=O)Nc1ccncc1)C2CC(=O)OCc1ccccc1 (centres undefined),165 to 166
16,C[C@H](NC(=O)OCc1ccccc1)C(=O)Nc1ccc(S(N)(=O)=O)cc1,245 to 246
17,COc1ccc(CC#N)c(Cl)c1Cl,118 to 119
18,CCN(CC)C(=O)C=Cc1cc([N+](=O)[O-])ccc1C,61.9
19,CCCCc1cn2ccccc2c1S(=O)(=O)c1ccc(OS(=O)(=O)c2ccc(C)cc2)cc1,145
20,CCCOCCn1c(CN2CCN(C)CC2)nc2ccccc21,73 to 75.5

# Further lines, results first:
row,melting point [°C],SMILES
1,185,CCCOc1ccccc1-c1nc2cc(N)ccc2c(=O)[nH]1
2,189 to 191,CCN(c1cccc(-c2ccnc3c([N+](=O)[O-])cnn23)c1)S(=O)(=O)c1ccccc1
3,89 to 90,COC(=O)Cc1ccc(C2=CC(=O)c3ccccc3C2=O)n1C
4,212 to 213,CC(=O)N1c2cc(Cl)cc(Cl)c2C(=O)CC1C(=O)O (centres undefined)
5,172 to 175,O=C(Cn1ncc2cc(/C=C/C(c3cc(Cl)c(F)c(Cl)c3)C(F)(F)F)ccc2c1=O)NCC(F)(F)F (centres undefined)
6,150 to 153,Cc1c(C(=O)Nc2ccc(N(CCO)CCO)c(C#N)c2)c2cc(F)ccc2n1CC(=O)O
7,147,Cc1cc(C2(O)C(=O)N(Cc3ccccc3)c3ccccc32)cc(C)c1O[Si](C)(C)C(C)(C)C (centres undefined)
8,126 to 128,O=S(=O)(Cc1ccccc1)On1nnc2ccc(Cl)cc21
9,147,CC(=O)Nc1ncc(Cc2ccc(Cl)cc2)c(NC(C)=O)n1
10,161 to 163,O=C(Nc1cc(Cl)cc(Cl)c1O)Nc1cccc(C(F)(F)F)c1Cl
11,248 to 251,CC1CC(=O)NN=C1c1ccc2c(ccc(=O)n2C)c1 (centres undefined)
12,82 to 84,COc1cc(C=CC(=O)CCc2ccco2)ccc1O
13,158 to 159,COc1ccc2[nH]c(-c3cc(C)c(O)c(C)c3)c(C)c2c1
14,135,Cc1cc(Cn2nc(-c3ccccc3)oc2=O)cc(C)c1O
15,113 to 115,O=C(CC(=O)C1CC1)c1cnc2ccccc2n1
16,74 to 77,O=C(c1ccccc1Cl)c1ccc(O)c(Cl)c1Cl
17,57 to 61,COc1cc2cc(CO)c(CO)c(-c3ccnc(NC(C)CCCO)c3)c2cc1OC (centres undefined)
18,150,CCOC(=O)CNC(=O)N1CCc2cc(S(=O)(=O)N3CCN(c4cccc(Cl)c4)CC3)ccc21
19,159 to 160,Cc1cc(C)c(NC(=O)CN2CCN(CCSc3nc4ccccc4o3)CC2)c(C)n1
20,170,Cc1nc2cc(C(O)(c3ccc(Cl)cc3)c3cncn3C)cc3c(-c4cccc(Cl)c4)cc(=O)n1c23 (centres undefined)
21,138 to 139,CCCc1nc(OC)c(NC(=O)N2CCN(c3cc(C)cc(C)c3)CC2)cc1C

row,melting point [°C],SMILES
1,118 to 120,CCCc1cc2cc(O)c(F)cc2c(Oc2ccc(/C=C/C(=O)O)cc2)c1-c1ccccc1
2,189 to 190,CC(C)n1nc(-c2sc(NC(C)(C)C)nc2-c2ccccc2)ccc1=O
3,281 to 282,COc1cccc(-c2nccc3[nH]c(=O)c(-c4noc(C)n4)cc23)c1
4,153 to 154,CCCn1c(=O)n(-c2ccc3c(c2)OCO3)c2ncc(F)cc21
5,80 to 82,CC(C)Oc1ccc(NC=O)cc1C(F)(F)F
6,132 to 133,Fc1ccc2c(-c3ccc(OC[C@H]4CO4)cc3)noc2c1
7,> 250,O=C1NC(=O)C(=Cc2ccc(C(=O)CCc3ccccc3)nc2)S1
8,77 to 82,O=C(NCCO)/C(=C/c1ccc(OC(F)(F)F)cc1)NC(=O)c1ccc(Oc2ccc(Cl)cc2)cc1
9,144 to 145,O=C(CC1CCCC1)Nc1c(C(O)(C(F)(F)F)C(F)(F)F)ccc2ccccc12
10,130 to 133,CC(C)(C)OC(=O)N1CCc2c(n(CCO)c3cc(Cl)c(Cl)cc23)CC1
11,152 to 153,N#Cc1c(F)cc(OCc2ccsc2)cc1OC(C(=O)O)c1ccccc1Cl (racemic)
12,191,O=C(Nc1ccc2[nH]c(=O)oc2c1)C(=O)N1CCC(Cc2ccc(F)cc2F)CC1
13,109 to 112,CCc1nc2c(cnn2CC)c(NC2CCOCC2)c1CNC(=O)c1cc(C)cc(C(=O)NCc2cccc(-c3cccc(C=O)c3)c2)c1
14,179 to 180,O=C(O)Cc1cscc1Nc1c(Cl)cccc1Cl
15,147 to 148,COC(=O)c1cc(C(O)(C(F)(F)F)C(F)(F)F)ccc1NS(C)(=O)=O
16,79 to 80,CCOC(=O)c1cc(N=Cc2ccccc2)ccc1OC(C)=O
17,157 to 158,CN(c1ccc(Cl)cc1)S(=O)(=O)c1cccc(C(=O)Nc2ccc(Cl)cc2C#N)c1
18,191 to 194,CCOc1cc2ncc(C#N)c(Nc3cccc(C(C)=O)c3)c2cc1OCC
19,190 to 192,COc1ccc(CC(=O)c2c(O)c3cccnc3n(-c3ccccc3)c2=O)cc1
20,241 to 243,Cc1ccnc2c1nc(-c1cccnc1N)n2-c1ccc(CC(=O)Nc2cccc(F)c2)cc1
21,160 to 163,FC(F)(F)c1cccc(-c2ccnc3nccn23)c1

# Reference: a melting point compilation (Tetko et al.; mined from patent text by program, amines drawn as free bases though some values may be those of a salt)
